What was measured:
[1] = system: PBMC cells into which OSKM was introduced; experiment: Efficiency of direct reprogramming depending on composition of NKIM-II medium; type: cell-based, human; conditions: added to NKIM-II medium, cultured for 29 days after 6 days in NKIM-I
Description: (§1) After introducing reprogramming factors (Oct4, Sox2, Klf4, and Myc) into PBMC cultured in the NKIM-I medium and NKIM-II medium, a mixture additive was added to the medium for analysis to promote the production capacity of natural killer cells produced by direct reprogramming.
In the case of NKIM-II medium, after introducing OSKM into PBMC cells, the following day, 1×10^5 transformed cells were added to a 48-well culture dish and cultured in NKIM-I medium for 6 days, and then these cells were cultured for 29 days in a medium in which StemRegenin I, which is an aryl hydrocarbon receptor antagonist, CH-223191, or FICZ, which is an aryl hydrocarbon receptor agonist, was added to NKIM-II.

PBMC (CD34−CD56−) cells = experiment: Role of GSK3β inhibitor in direct reprogramming from PBMC to natural killer cells, flow cytometry; type: cell-based, human; conditions: when CT99021 (5 μM) was not added to NKIM-I medium, compared with added; 24th day
Description: On the 24th day when direct reprogramming was started as in Example 1, the cells were recovered and stained using antibodies against CD56 and CD4 attached with fluorescence and then the group of natural killer cells (CD56^+ and CD4^−) was analyzed by flow cytometry.

[2] = system: PBMC into which OSKM was introduced; experiment: Efficiency of direct reprogramming depending on composition of NKIM-I medium; type: cell-based, human; conditions: single additive in NKIM-I medium compared with the condition without additives
Description: as §1
Specifically, in the case of NKIM-I medium, after introducing OSKM into PBMC, the following day, 1×10^5 transformed cells were added to a 48-well culture dish in the reprogramming culture process with different combinations of 5 μM CHIR 99021, 2 mM LiCl, […], and 20 ng/mL human IL-15 in NKIM-I medium, and the production capacity of CD56+ induced natural killer cells was thereby confirmed.

SW620 = experiment: In vivo anti-cancer effect, subcutaneous SW620 tumor in nude mice; design: species or system Balb/c-nude mouse; conditions: 2 mg/kg i.p. every other day for two weeks; day 28
Description: In addition, in vivo experiments were performed using mice to verify the anti-cancer effect of induced natural killer cells. The day after subcutaneous injection of 2×10^6 Sw620 into the back of 8-week-old nude mice (Balb/c-nude mouse, average weight 20 g to 25 g), induced natural killer cells (5×10^6, 1.5×10^7) and 2 mg/kg of doxorubicin were injected. Induced natural killer cells were injected intravenously (i.v.) twice on D1 and D4, and doxorubicin was injected intraperitoneally (i.p) every two days (every other day) for two weeks. On the 28th day, the mice of each group were sacrificed by cervical dislocation technique, and the protruding cancer masses formed under the skin of the mice of each group were extracted. The extracted Sw620 cancer was compared by group to confirm the anti-cancer effect of induced natural killer cells (FIG. 13A).

Cc1ccccc1N=Nc1ccc(NC(=O)c2ccnn2C)c(C)c1 [CH-223191]
yield of induced natural killer cells [1]: significantly increased

Cc1c[nH]c(-c2cnc(NCCNc3ccc(C#N)cn3)nc2-c2ccc(Cl)cc2Cl)n1 [CT99021]
differentiation into natural killer cells (CD56+ and CD4−) (PBMC (CD34−CD56−) cells): significantly lowered | production of CD56+CD3− induced natural killer cells [2]: effect of promoting the production

O=Cc1c2[nH]c3ccccc3c2cc2[nH]c3ccccc3c12 [FICS]
yield of induced natural killer cells [1]: significantly reduced

[Cl-].[Li+] [LiCl]
production of CD56+CD3− induced natural killer cells [2]: effect of promoting the production

CC(C)n1cnc2c(NCCc3ccc(O)cc3)nc(-c3csc4ccccc34)nc21.Cl [StemRegenin I, (4-(2-((2-benzo[b]thiphen-3-yl)-9-isopropyl-9H-purin-6-yl)amino)ethyl)phenol hydrochloride]
production of CD56+CD3− induced natural killer cells [2]: effect of promoting the production | yield of induced natural killer cells [1]: significantly increased

COc1cccc2c1C(=O)c1c(O)c3c(c(O)c1C2=O)C[C@@](O)(C(=O)CO)C[C@@H]3O[C@H]1C[C@H](N)[C@H](O)[C@H](C)O1 [doxorubicin]
tumor size (SW620): 262 mm^3

IL-15: human interleukin 15, cytokine additive
production of CD56+CD3− induced natural killer cells [2]: effect of promoting the production

B1: IL-7: human interleukin 7, cytokine additive (protein, UniProt P13232 26-177, looked up)
Interleukin-7: DCDIEGKDGKQYESVLMVSIDQLLDSMKEIGSNCLNNEFNFFKRHICDANKEGMFLFRAARKLRQFLKMNSTGDFDLHLLKVSEGTTILLNCTGQVKGRKPAALGEAQPTKSLEENKSLKEQKKLNDLCFLKRLLQEIKTCWNKILMGTKEH
production of CD56+CD3− induced natural killer cells [2]: effect of promoting the production

— US12421496B2, “Method for producing natural killer cell and use thereof” (KOREA RESEARCH INSTITUTE OF BIOSCIENCE AND BIOTECHNOLOGY, priority 2017, dated 2025)
